Legend:
A549 = assay: MTT cytotoxicity assay, A549; type: cell-based, human; conditions: 72 h
Description: (§1) One of the parameters used as the basis for colorimetric assays is the metabolic activity of viable cells. For example, a microtiter assay which uses the tetrazolium salt MTT is now widely used to quantitate cell proliferation and cytotoxicity (Hájduch et al., Cytotechnology, 19, 1996, 243-245). For instance, this assay is used in drug screening programs and in chemosensitivity testing. Because tetrazolium salts are cleaved only by metabolically active cells, these assays exclusively detect viable cells. In the case of the MTT assay, yellow soluble tetrazolium salt is reduced to a coloured water-insoluble formazan salt. After it is solubilized, the formazan formed can easily and rapidly be quantified in a conventional ELISA plate reader at 570 nm (maximum absorbancy). The quantity of reduced formazan corresponds to the number of vital cells in the culture.
(§2) All cells were purchased from the […] (ATCC), unless otherwise indicated: the CEM line are highly chemosensitive T-lymphoblastic leukemia cells, K562 cells were derived from patient with […] with bcr-abl translocation, A549 line is lung adenocarcinoma, HCT116 is colorectal tumor cell line and its p53 gene knock-down counterpart (HCT116p53−) is a model of human cancers with p53 mutation frequently associated with poor prognosis. The daunorubicin resistant subline of CEM cells (CEM-DNR bulk) and paclitaxel resistant subline K562-tax were selected in our laboratory by the cultivation of maternal cell lines in increasing concentrations of daunorubicine or paclitaxel, respectively (Noskova et al., Neoplasma 49, 2002, 418). The CEM-DNR bulk cells overexpress MRP-1 protein, while K562-tax cells overexpress P-glycoprotein, both proteins belong to family of ABC transporters and are involved in primary and/or acquired multidrug resistance phenomenon (Noskova et al., Neoplasma 49, 2002, 418). The cells were maintained in Nunc/Corning 80 cm^2 plastic tissue culture flasks and cultured in cell culture medium (DMEM/RPMI 1640 with 5 g/l glucose, 2 mM glutamine, 100 U/ml penicillin, 100 μg/ml streptomycin, 10% fetal calf serum, and NaHCO3).
(§3) This assay was performed according to Hajduch et al., Anti-Cancer Drugs 10, 1997, 1007. Cell suspensions were prepared and diluted according to the particular cell type and the expected target cell density (2 500-30 000 cells/well based on cell growth characteristics). Cells were added by pipette (80 μl) into 96-well microtiter plates. Inoculates were allowed a pre-incubation period of 24 h at 37° C. and 5% CO2 for stabilization. Four-fold dilutions, in 20-μl aliquots, of the intended test concentration were added to the microtiter plate wells at time zero. All test compound concentrations were examined in duplicate. Incubation of the cells with the test compounds lasted for 72 h at 37° C., in a 5% CO2 atmosphere at 100% humidity. At the end of the incubation period, the cells were assayed using MTT. Aliquots (10 μl) of the MTT stock solution were pipetted into each well and incubated for a further 1-4 h. After this incubation period the formazan produced was dissolved by the addition of 100 μl/well of 10% aq SDS (pH=5.5), followed by a further incubation at 37° C. overnight. The optical density (OD) was measured at 540 nm with a Labsystem iEMS Reader MF. Tumor cell survival (TCS) was calculated using the following equation: TCS=(ODdrug-exposed well/mean ODcontrol wells)×100%. The TCS50 value, the drug concentration lethal to 50% of the tumor cells, was calculated from appropriate dose-response curves.

K562-TAX = assay: MTT cytotoxicity assay, K562-TAX; type: cell-based, human; conditions: 72 h
Description: as §1, §2, §3

BJ = assay: MTT cytotoxicity assay, BJ; type: cell-based; conditions: 72 h
Description: as §1, §3

HCT116 cells = assay: Flow cytometric measurement of intracellular pH (pHi), HCT116 expressing CAIX; type: cell-based, human; conditions: for pHi: HCT116, carboranes at 1 μM, 24 hour incubation, control 7.516; for intracellular acidification in HCT116 cells: carboranes 1 μM versus acetazolamide 50 μM
Protocol: The effect of carborane CAIX (carbonic anhydrase IX) inhibitors was evaluated on colorectal cancer cell line HCT116 expressing CAIX enzyme versus CA IX negative cell line of T-lymphoblastic leukemia CCRF-CEM. Acetazolamide, a known inhibitor of CAIX, was used as a standard. HCT116/CCRF-CEM cells were cultivated in McCoy/RPMI Media supplemented with 10% FCS and antibiotics and seeded at high density ([…] per 3.5 cm dish) to induce pericellular hypoxia and thus stimulate CA IX expression. Measurement of pHi was assessed as described in Cianchi et al. [Cianchi F., et al. Selective inhibition of carbonic anhydrase IX decreases cell proliferation and induces […] apoptosis in human cancer cells. The Journal of Pharmacology and Experimental Therapeutics, 2010, Vol. 334, No. 3, 710-719].
[…] The pHi was measured by flow cytometry in cell cultures pretreated with 10 μM of pH sensitive probe carboxyseminaphtorhoda-fluor-1-acetoxymethyl ester (SNARF, Invitrogen, CA) for 15 min at 37° C. After incubation, the cells were washed twice with PBS. Because the addition of bicarbonate can affect pHi, all incubation and cell washes were performed in bicarbonate-free buffer. SNARF was excited at 488 nm and emitted at 580 and 640 nm. The ratio of the emission wavelengths at 640/580 nm was then used to estimate the pHi from a calibration curve. The calibration curve was prepared by nigericin clamp technique. In this method, after the SNARF labeling of untreated cells, aliquots of cell suspensions were re-suspended in a high potassium containing buffer at specific pH (usually 6.8, 7.0, 7.2, 7.4, 7.6 and 7.8). The cell suspensions were then clamped at a specific pH value by the addition of 0.03 μM nigericin (Sigma-Aldrich). Nigericin is a ionophore that allows the exchange of H for K ions, thus abolishing the pH gradient across the cell membrane. When the internal and external K concentrations are approximately equal, the pH rapidly equilibrates to the pH of the bathing solution. A total of 20,000 events were acquired on a FACS ARIA II flow cytometer (Becton. Dickinson) for further analysis.
The fluorescent ratio values (640/580 nm) calculated for each pH point were further used to construct calibration curve in Prism software (GraphPad Software, Inc., San Diego, Calif.), from which the pHi values in treated cells were determined (Table 3).

| Substance | IC50 (A549) [µM] | IC50 (K562-TAX) [µM] | IC50 (BJ) [µM] | pHi (HCT116 cells) | intracellular acidification in HCT116 cells (HCT116 cells) |
| --- | --- | --- | --- | --- | --- |
| 1-methylensulfamide-1,2-dicarba-closo-dodekaborane [CB-1] | 94.9 ± 4.3 | 81.5 ± 11 | ≥ 100 | 7.561 |  |
| 8-diethyleneoxysulfamide-3,3′-commo-bis(decahydro-1,2-dicarba-3-cobalta(III)-closo-dodekabor)ate (1-) [CB-17] | ≥ 100 | ≥ 100 | ≥ 100 | 7.571 |  |
| Di(methylenesulfamide)-1,7-dicarba-closo-dodecaborane [CB-20] | ≥ 100 | 96.3 ± 5.8 | ≥ 100 | 7.561 |  |
| 7-methylensulfamide-(7,8-nido-dicarbaundekaborate) (1-) [CB-2] | ≥ 100 | 99.9 ± 0.2 | ≥ 100 | 7.572 |  |
| 8-methylensulfamide-8″-methoxy-3,3′-commo-bis(1,2-dicarba-3-cobalta(III)-closo-dodecabor)ate (1-) [CB-4] | 95.5 ± 3.7 | 55.2 ± 4.7 | 76.4 ± 3.3 | 7.538 |  |
| 1-sulfamide-closo-1-carbadodecaborate (1-) [CB-3] | ≥ 100 | ≥ 100 | ≥ 100 | 7.479 |  |
| 1-methylenesulfamide-3,3′-commo-bis(1,2-dicarba-3-cobalta(III)-closo-dodecabor)ate (1-) [CB-5] | ≥ 100 | 66.4 ± 8 | ≥ 100 | 7.483 |  |
| 8-propylenesulfamide-7-phenyl-(7,8-nido-dicarbaundecabor)ate (1-) [CB-13] | 86.5 ± 4.6 | 64.2 ± 4.5 | 88.4 ± 6.1 | 7.51 |  |
| 8-ethylaminomethylsulfamide-8″-methoxy-3,3′-commo-bis(decahydro-1,2-dicarba-3-cobalta(III)-closo-dodecabor)ate (1-) [CB-15] | 33.7 ± 7.7 | 16.6 ± 1.2 | 65.2 ± 4.4 | 7.343 | better than acetazolamide |
| 9-sulfamide-9′-amine-2,2′-commo-bis(1,7,9-trikarba-2-ferra(II)-kloso-dodekabor)ane [CB-12] | ≥ 100 | ≥ 100 | ≥ 100 | 7.704 |  |
| 1-methylenesulfamide-9-phenyl-1,2-dicarba-closo-dodecaborane and 1-methylene-sulfamide-12-phenyl-1,2-dicarba-closo-dodecaborane [CB-8] | 96 ± 6.2 | 79.6 ± 10.9 | ≥ 100 | 7.112 | better than acetazolamide |
| 10-sulfamide-9′-amine-2,2′-commo-(1,7,10-tricarba-1′,7′,9′-tricarba-2-ferra (II)-closo-dodekabor)ane [CB-10] | ≥ 100 | 73.6 ± 11.1 | ≥ 100 | 7.688 |  |
| 7-methylensulfamide-8-phenyl-(7,8-nido-dikarbaundekabor)ate (1-) [CB-6] | 77.8 ± 10.8 | 56.9 ± 15.1 | ≥ 100 | 7.192 | better than acetazolamide |
| 8-butyloxysulfamide-3,3′-commo-bis(decahydro-1,2-dicarba-3-cobalta(III)-closo-dodekabor)ate (1-) [CB-16] | ≥ 100 | 95.8 ± 4.4 | ≥ 100 | 7.563 |  |
| 1-methylenesulfamide-1,7-dicarba-closo-dodecaborane [CB-19] | ≥ 100 | 86.7 ± 12.7 | ≥ 100 | 7.542 |  |
